Measurements published in patent US8518883B2, “Method of reducing deleterious effects of ischemia by administration of a thrombopoietin receptor ligand” (MCW Research Foundation, Inc., priority 2006, dated 2013).

System: in vitro rat hearts
Experiment: Isolated perfused (Langendorff) rat heart, 25 min global ischemia and 180 min reperfusion: hemodynamics, infarct size, recovery of LVDP
Conditions: for Effect on the cardioprotective effect of Tpo (infarct size, LVDP recovery): Glibenclamide 3 μM 15 min alone, then with Tpo 1.0 ng/ml 15 min prior to ischemia; for Effect on cardioprotection, drug alone: no Tpo
Description: The study was directed to determining whether Tpo (0.01-10.0 ng/ml) confers immediate cardioprotection in rat hearts and the contribution of potassium channels to the underlying mechanism. Hearts from normoxic 8 week old Sprague Dawley rats (n=8/group) were isolated and perfused in the Langendorff mode. Hemodynamic function was recorded under steady-state conditions prior to 25 minutes global no flow ischemia and 180 minutes reperfusion.
Isolated heart perfusion. Isolated rat hearts were perfused with bicarbonate buffer at constant pressure in a retrograde manner and instrumented as described in Baker, et al., Am. J. Physiol. Heart Circulat. Physiol. 278:1395-1400, 2000 potassium channel blockers were added to this perfusate as needed. A 3-way tap, located immediately above the site of cannulation, allowed the entire perfusate to be diverted away from the heart to produce global, no-flow ischemia. Reperfusion was achieved by repositioning of the tap to allow perfusate to be delivered to the heart. Left ventricular function was monitored continuously throughout each experiment as described in Baker, et al., supra, 2000. End-diastolic pressure was initially set to 3 mmHg for 2 minutes. The balloon was then progressively inflated with a microsyringe to set end-diastolic pressures to 8 mmHg for the left ventricle, with developed pressure and heart rate recorded during steady-state conditions. Coronary flow rate was measured throughout the experiment by timed collections of the coronary effluent from the right side of the heart into a graduated cylinder. Coronary flow rate was expressed as milliliters per minute per gram wet weight.
Resistance to myocardial ischemia. Hearts from adult rats were perfused with bicarbonate buffer, and biventricular function was monitored continuously throughout each experiment as described in Baker, et al., supra, 2000. For concentration response studies, hearts were then perfused with Tpo (0.01-10.0 ng/ml) for 15 minutes prior to 25 minutes ischemia and 180 minutes reperfusion. For mechanism studies with potassium channel blockers, hearts were perfused with drugs for 15 minutes alone followed by 15 minutes in combination with Tpo prior to ischemia. Hearts perfused with potassium channel blockers alone in the absence of Tpo for 30 minutes prior to ischemia served as untreated controls for these studies. Recovery of post-ischemic left ventricular developed pressure was expressed as a percentage of its pre-drug, pre-ischemic value.
Assessment of ventricular function. Left ventricular function was monitored continuously throughout each experiment as described in Baker, et al., supra, 2000. Recovery of left ventricular pressure following ischemia was used to assess resistance to ischemia.
Measurement of infarct size/area at risk at 3 hours reperfusion were used to assess resistance to myocardial ischemia. For characterization of infarction size, hearts were perfused with 10 ml bicarbonate buffer containing triphenyltetrazolium chloride (SIGMA) at 37° C.
The heart was sectioned in 2 mm segments from apex to atrio-ventricular groove in a transverse fashion. Each segment was recorded and placed in formalin. After twenty-four (24) hours, the specimen was digitally photographed in a camera mount to normalize specimen-to-lens distance. Each photograph was then appended to Adobe Photoshop (Adobe™) to measure pixel density of infarcted versus non-infarcted areas. The percentage of infarction of each slide was expressed as a percentage of the entire area of the heart.
Hearts from male Sprague Dawley rats at 8 weeks of age were isolated and perfused with Tpo at 0.01, 0.1, 1.0, and 10 ng/ml for 15 minutes prior to 25 minutes global ischemia and 180 minutes reperfusion (FIG. 2). Tpo (1.0 ng/ml) reduced coronary flow rate prior to ischemia from 6±1 ml/min/g to 5±1 ml/min/g, increased left ventricular developed pressure from 119±15 mmHg to 151±19 mmHg and decreased heart rate from 240±34 beats/minute to 228±17 beats/minute. […]

COc1ccc(Cl)cc1C(=O)NCCc1ccc(S(=O)(=O)NC(=O)NC2CCCCC2)cc1 [Glibenclamide, reference compound]
Effect on the cardioprotective effect of Tpo (infarct size, LVDP recovery): completely abolished
Effect on the cardioprotective effect of Tpo (infarct size, LVDP recovery) (listed as glibenclamide): completely prevented
Effect on cardioprotection, drug alone (Glibenclamide 3 μM alone): no effect

COC[C@H]1OC(=O)c2coc3c2[C@@]1(C)C1=C(C3=O)[C@@H]2CCC(=O)[C@@]2(C)C[C@H]1OC(C)=O [Wortmannin, reference compound]
Effect on cardioprotection, drug alone (Wortmannin 100 nM alone): no effect
